Patent US20090069241A1, “Compositions and Methods for Use of Pigment Epithelial Derived Factor (PEDF) Peptide Fragments” (Yale University, priority 2006, published 2009)

Experiments:
Format in all cases: in vivo, C57/B16 mice
[1] = tested on: inner retina (INL, IPL, retinal ganglion cell layer); assay: Transient retinal ischemia-reperfusion injury with intravitreous injection; morphometric analysis of inner retina; set-up: thickness of the INL compared with non-ischemia control / thickness of the IPL compared with non-ischemia control / surviving cells in the RGC layer compared with non-ischemia control: concentration or dose not given beside the values; conditions: for surviving cells in the RGC layer compared with non-ischemia control / thickness of the INL compared with non-ischemia control / thickness of the IPL compared with non-ischemia control: single intravitreous injection immediately after ischemia
Procedure: Induction of transient retinal ischemia in C57/B16 mice: Animal experiments were conducted in accordance with ARVO guidelines and were approved by the Animal Care and Use Committee of Yale University School of Medicine. Transient retinal ischemia was induced in one eye and the contralateral eye served as control. During the operation and recovery period, animals were placed on water heating pads at 37° C. […] Briefly, animals were anesthetized by i.p. injection of a mixture of 100 mg/kg Ketamine+10 mg/kg Xylazine. […] The anterior chambers were cannulated in fully anesthetized animals with a 30-gauge infusion needle connected by PE10 polyethylene tubing and IV set to a physiological saline reservoir. The intraocular pressure (IOP) of the cannulated eye was raised to 120 mmHg for 60 minutes by elevating the saline reservoir. Retinal ischemia was confirmed by direct microscopic observation of whitening of the fundus. The reperfusion was confirmed visually when needle was withdrawn from the anterior chamber. One group of animals was treated with Vetropolycin® ophthalmic ointment (Pharmaderm, Melville, N. Y.) on the ischemic eyes and allowed to recover for 24 hours, 48 hours, 7 days and 14 days before sacrifice. Other groups were kept for intravitreous injections of the PEDF and PEDF peptides.
Intravitreous injection of PEDF, PEDF peptides and encapsulated PEDF peptide: One group of animals remained uninjected to monitor ischemic damage. All other groups received intravitreal injections, which were performed under an ophthalmic microscope. […] Intravitreous injection was performed with 30-gauge beveled needle attached to PE10 polyethylene tubing and a 10 μl syringe (Hamilton, Reno, Nev.). The injections were performed through the sclera, approximately 1 mm behind the limbus. The needle remained in the vitreous cavity for 30 seconds after injection then gently withdrawn. Control groups were injected with 1 μl PBS, 1 μl control peptide (1 μg/μl), or blank nanospheres (0.1 mg/μl). […] Vetropolycin® ointment was applied to the injected eyes and animals were allowed to recover for 48 hours or 7 days before sacrifice.
Preparation of retinal tissue: at designated time points, mice were sacrificed by carbon dioxide inhalation followed by, in some cases, cervical dislocation. The eyes were enucleated, fixed in 4% paraformaldehyde for 24 hours, washed with PBS and embedded in paraffin. Five (5) μm thick sections that included the optic nerve were collected. Sections were processed for TUNEL, immunocytochemistry, or histochemical staining with hematoxylin and eosin (Surgipath, Ltd, Richmond, Ill.) using standard methods.
Morphologic and Morphometric Analysis: For each eye, three sections, which included the optic disk and were spaced at least 20 μm apart, were used for morphological analysis. The fields analyzed were 4×250 μm zones sampled from all retinal eccentricities. These zones were 500 μm away from the edge of optic disk or the ora serrata. The average measurement of these 4 zones was used for statistical analysis. The mean thickness of inner nuclear layer (INL) and inner plexiform layer (IPL) was measured using Axiovision3.1 software (Carl Zeiss MicroImaging, Inc., Thornwood, N.Y.). Total surviving cells in the retinal ganglion cell layer at the same locations were counted using light microscopy.
Statistical analysis: Twelve fields per retina were analyzed for each treatment, and a total of 72 fields were used. For statistical analysis, one-way analysis of variance (ANOVA) and Fisher tests were performed; p<0.05 was taken as significant. Data are presented as means and standard deviations.

Erk = assay: Western blot of phosphorylated Erk in retinas after ischemic injury; conditions: 48 hours after ischemic injury; control retinas: not detected at 48 hours
Procedure: (§1) Induction of transient retinal ischemia in C57/B16 mice: Animal experiments were conducted in accordance with ARVO guidelines and were approved by the Animal Care and Use Committee of Yale University School of Medicine. Transient retinal ischemia was induced in one eye and the contralateral eye served as control. During the operation and recovery period, animals were placed on water heating pads at 37° C. Eighty-one 10-14 weeks male C57/B16 mice (Charles River Laboratories, Wilmington, Mass., weighing […]) were used in this experiment. To induce retinal ischemia, a previously established technique with some modifications was used (Hughes, 1991, Exp Eye Res. 53(5):573-582; Buchi et al., 1991, Opthalmologica 203 (3): 138-147). Briefly, animals were anesthetized by i.p. injection of a mixture of 100 mg/kg Ketamine+10 mg/kg Xylazine. […]
(§2) The effect of PEDF82-121 on STAT3 and Erk after ischemic injury was examined by Western blot. In control retinas subjected to ischemic injury, phosphorylated STAT3 was detected at 24 hours but not at 1 hour, 4 hours, 12 hours or 48 hours after ischemic injury. […] In control retinas, phosphorylated Erk was detect strongly at 4 hours and 12 hours after ischemic injury but was barely detectable at 24 hours and not detected at 48 hours. […]

GFAP = GFAP immunocytochemical labeling of Müller glial cells after transient ischemia
Procedure: Induction of transient retinal ischemia in C57/B16 mice: Animal experiments were conducted in accordance with ARVO guidelines and were approved by the Animal Care and Use Committee of Yale University School of Medicine. Transient retinal ischemia was induced in one eye and the contralateral eye served as control. During the operation and recovery period, animals were placed on water heating pads at 37° C. Eighty-one 10-14 weeks male C57/B16 mice (Charles River Laboratories, Wilmington, Mass., weighing […]) were used in this experiment. To induce retinal ischemia, a previously established technique with some modifications was used (Hughes, 1991, Exp Eye Res. 53(5):573-582; Buchi et al., 1991, Opthalmologica 203 (3): 138-147). Briefly, animals were anesthetized by i.p. injection of a mixture of 100 mg/kg Ketamine+10 mg/kg Xylazine. The corneas were topically anesthetized with 0.5% proparacaine hydrochloride (Bausch & Lomb Pharmaceuticals, Inc., Tampa, Fla.), and the pupils dilated with 2.5% phenylephrine (Bausch & Lomb Pharmaceuticals, Inc., Tampa, Fla.). The anterior chambers were cannulated in fully anesthetized animals with a 30-gauge infusion needle connected by PE10 polyethylene tubing and IV set to a physiological saline reservoir. The intraocular pressure (IOP) of the cannulated eye was raised to 120 mmHg for 60 minutes by elevating the saline reservoir. Retinal ischemia was confirmed by direct microscopic observation of whitening of the fundus. The reperfusion was confirmed visually when needle was withdrawn from the anterior chamber. One group of animals was treated with Vetropolycin® ophthalmic ointment (Pharmaderm, Melville, N. Y.) on the ischemic eyes and allowed to recover for 24 hours, 48 hours, 7 days and 14 days before sacrifice. Other groups were kept for intravitreous injections of the PEDF and PEDF peptides.
Intravitreous injection of PEDF, PEDF peptides and encapsulated PEDF peptide: One group of animals remained uninjected to monitor ischemic damage. All other groups received intravitreal injections, which were performed under an ophthalmic microscope. Experimental groups received 1 μl native PEDF protein (1 μg/μl), PEDF82-121 peptide (1 μg/μl), PEDF76-95 peptide (1 μg/μl), PEDF91-110 peptide (1 μg/μl), PEDF106-125 peptide (1 μg/μl) or PLGA PEDF82-121 nanospheres (0.1 mg/μl, less than 1.6 μg PEDF82-121 peptide when fully released) immediately after the end of the transient ischemia. Intravitreous injection was performed with 30-gauge beveled needle attached to PE10 polyethylene tubing and a 10 μl syringe (Hamilton, Reno, Nev.). The injections were performed through the sclera, approximately 1 mm behind the limbus. The needle remained in the vitreous cavity for 30 seconds after injection then gently withdrawn. […]

STAT3 = assay: Western blot of phosphorylated STAT3 in retinas after ischemic injury; conditions: 48 hours after ischemic injury; control retinas: detected only at 24 hours
Procedure: as §1, §2

[2] = 48 hours after ischemia reperfusion

PEDF82-121: residues 82 to 121 of human PEDF, PLSVATALSALSLGAEQRTESIIHRALYYDLISSPDIHGT (SEQ ID NO: 3) ((1)..(40) Residues 82-121 of human PEDF; listed as Homo sapiens)
surviving cells in the RGC layer compared with non-ischemia control [1, 2]: 80.1%
thickness of the INL compared with non-ischemia control [1, 2]: 100%
thickness of the IPL compared with non-ischemia control [1, 2]: 100%
protection of the retinal ganglion cell layer (in words) ([1]; 48 hours post ischemia, versus PBS or PEDF136-155): substantial protection
surviving cells in the RGC layer compared with non-ischemia control ([1]; 7 days after injury): 56.8%
thickness of the INL compared with non-ischemia control ([1]; 7 days after injury): 72.8%
thickness of the IPL compared with non-ischemia control ([1]; 7 days after injury): 62.7%
protection of the retinal ganglion cell layer (in words) ([1]; 7 days post ischemia, free single bolus or nanospheres): less
IPL thickness after ischemic injury (in words) ([1]; compared to PBS injected controls, time not stated): maintained the thickness of the IPL
presence of phosphorylated Erk (Erk): strongly detected at 48 hours
GFAP labeling compared to PBS injections (GFAP; 48 hours after transient ischemia): less GFAP labeling
GFAP staining (GFAP; 7 days after injury): very similar staining
presence of phosphorylated STAT3 (STAT3): also detected at 48 hours
